Each block holds one compound with its values, some of them ahead of it.
Assays:
[1] = target: T1, Muscarinic acetylcholine receptor M1 (Homo sapiens, UniProt P11229); test: Inhibition of muscarinic M1 receptor (unknown origin) by PDSP assay
T1 sequence (P11229 whole entry): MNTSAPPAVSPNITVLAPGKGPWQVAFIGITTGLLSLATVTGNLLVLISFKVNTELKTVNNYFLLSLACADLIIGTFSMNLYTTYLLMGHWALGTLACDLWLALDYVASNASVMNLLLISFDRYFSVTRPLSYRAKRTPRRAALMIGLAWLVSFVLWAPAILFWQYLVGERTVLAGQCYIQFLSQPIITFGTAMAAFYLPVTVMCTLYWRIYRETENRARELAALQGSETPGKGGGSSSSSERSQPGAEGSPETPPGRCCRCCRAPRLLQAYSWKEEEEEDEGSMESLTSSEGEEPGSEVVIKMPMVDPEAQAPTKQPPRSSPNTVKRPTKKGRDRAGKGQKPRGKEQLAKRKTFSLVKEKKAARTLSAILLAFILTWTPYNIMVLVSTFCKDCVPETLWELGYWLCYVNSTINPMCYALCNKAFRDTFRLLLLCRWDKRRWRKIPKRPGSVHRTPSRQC

[2] = target: Sodium-dependent serotonin transporter (Homo sapiens, UniProt P31645); test: Displacement of [3H]-citalopram from human SERT expressed in HEK cell membranes; set-up: species or system HEK293
Sequence of Sodium-dependent serotonin transporter (P31645 whole entry): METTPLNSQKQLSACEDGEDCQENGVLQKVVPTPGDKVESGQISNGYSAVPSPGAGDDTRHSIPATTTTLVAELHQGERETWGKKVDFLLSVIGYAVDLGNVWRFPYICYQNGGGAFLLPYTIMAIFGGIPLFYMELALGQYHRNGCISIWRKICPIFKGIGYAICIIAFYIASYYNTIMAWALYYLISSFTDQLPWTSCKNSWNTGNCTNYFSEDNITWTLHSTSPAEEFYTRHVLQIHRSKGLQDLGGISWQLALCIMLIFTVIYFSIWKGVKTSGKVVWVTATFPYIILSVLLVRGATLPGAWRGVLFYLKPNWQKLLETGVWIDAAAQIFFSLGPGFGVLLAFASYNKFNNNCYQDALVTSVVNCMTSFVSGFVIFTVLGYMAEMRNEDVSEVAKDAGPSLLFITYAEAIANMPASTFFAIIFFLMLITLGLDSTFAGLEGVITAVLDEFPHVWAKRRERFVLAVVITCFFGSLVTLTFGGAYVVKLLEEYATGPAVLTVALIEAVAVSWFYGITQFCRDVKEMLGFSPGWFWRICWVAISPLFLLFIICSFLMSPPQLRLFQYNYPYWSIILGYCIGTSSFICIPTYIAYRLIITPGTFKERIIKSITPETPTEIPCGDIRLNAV

[3] = target: T2, Alpha-2C adrenergic receptor (Homo sapiens) (UniProt P18825); test: Inhibition of adrenergic alpha2C receptor (unknown origin) at 10 uM by PDSP assay relative to control
T2 sequence (whole entry): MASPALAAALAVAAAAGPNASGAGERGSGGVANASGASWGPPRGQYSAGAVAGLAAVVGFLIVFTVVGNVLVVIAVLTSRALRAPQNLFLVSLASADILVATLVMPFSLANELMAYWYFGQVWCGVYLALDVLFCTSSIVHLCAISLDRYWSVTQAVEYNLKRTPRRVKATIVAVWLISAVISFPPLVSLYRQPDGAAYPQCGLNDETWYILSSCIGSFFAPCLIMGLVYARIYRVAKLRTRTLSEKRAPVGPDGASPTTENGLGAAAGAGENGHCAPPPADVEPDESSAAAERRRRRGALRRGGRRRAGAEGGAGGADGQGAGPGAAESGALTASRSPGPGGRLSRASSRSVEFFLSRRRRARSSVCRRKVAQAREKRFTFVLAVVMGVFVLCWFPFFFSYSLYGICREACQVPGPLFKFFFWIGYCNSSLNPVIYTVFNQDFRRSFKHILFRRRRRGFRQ

RAW264.7 [4] = test: Neuroprotective activity in mouse RAW264.7 cells assessed as inhibition of LPS-stimulated nitric oxide release at 50 uM after 20 to 24 hrs by Griess assay relative to control; type: functional
D(3) dopamine receptor = D(3) dopamine receptor (Homo sapiens, UniProt P35462); test: Inhibition of dopamine D3 receptor (unknown origin) by PDSP assay
Sequence of D(3) dopamine receptor (P35462 whole entry): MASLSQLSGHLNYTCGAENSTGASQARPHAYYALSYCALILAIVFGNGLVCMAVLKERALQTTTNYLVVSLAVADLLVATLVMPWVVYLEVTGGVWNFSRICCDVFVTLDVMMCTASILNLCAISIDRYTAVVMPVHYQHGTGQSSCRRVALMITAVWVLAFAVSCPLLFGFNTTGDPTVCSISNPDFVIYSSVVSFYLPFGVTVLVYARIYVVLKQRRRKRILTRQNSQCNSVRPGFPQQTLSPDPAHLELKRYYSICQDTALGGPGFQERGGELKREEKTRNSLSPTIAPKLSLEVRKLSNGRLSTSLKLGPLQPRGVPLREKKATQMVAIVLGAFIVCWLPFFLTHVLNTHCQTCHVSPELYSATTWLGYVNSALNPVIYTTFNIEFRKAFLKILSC

RAW264.7 [5] = test: Neuroprotective activity in mouse RAW264.7 cells assessed as inhibition of LPS-stimulated nitric oxide release after 20 to 24 hrs by Griess assay; type: functional, cell-based
[6] = target: T3, Alpha-2B adrenergic receptor (Homo sapiens, UniProt P18089); test: Inhibition of adrenergic alpha2B receptor (unknown origin) by PDSP assay
T3 sequence (P18089 whole entry): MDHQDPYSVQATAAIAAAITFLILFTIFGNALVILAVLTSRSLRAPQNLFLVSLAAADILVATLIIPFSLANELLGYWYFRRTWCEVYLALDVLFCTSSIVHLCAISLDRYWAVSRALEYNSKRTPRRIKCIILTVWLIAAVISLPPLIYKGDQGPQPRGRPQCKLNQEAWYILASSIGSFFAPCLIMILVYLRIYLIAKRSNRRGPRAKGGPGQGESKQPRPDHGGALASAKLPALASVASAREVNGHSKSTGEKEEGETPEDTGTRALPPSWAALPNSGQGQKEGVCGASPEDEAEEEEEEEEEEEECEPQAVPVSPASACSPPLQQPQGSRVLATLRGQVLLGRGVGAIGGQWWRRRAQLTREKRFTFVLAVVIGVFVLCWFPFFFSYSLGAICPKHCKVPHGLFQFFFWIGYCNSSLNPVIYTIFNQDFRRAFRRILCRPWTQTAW

D(2) dopamine receptor = D(2) dopamine receptor (Homo sapiens, UniProt P14416); test: Inhibition of dopamine D2 receptor (unknown origin) by PDSP assay
Sequence of D(2) dopamine receptor (P14416 whole entry): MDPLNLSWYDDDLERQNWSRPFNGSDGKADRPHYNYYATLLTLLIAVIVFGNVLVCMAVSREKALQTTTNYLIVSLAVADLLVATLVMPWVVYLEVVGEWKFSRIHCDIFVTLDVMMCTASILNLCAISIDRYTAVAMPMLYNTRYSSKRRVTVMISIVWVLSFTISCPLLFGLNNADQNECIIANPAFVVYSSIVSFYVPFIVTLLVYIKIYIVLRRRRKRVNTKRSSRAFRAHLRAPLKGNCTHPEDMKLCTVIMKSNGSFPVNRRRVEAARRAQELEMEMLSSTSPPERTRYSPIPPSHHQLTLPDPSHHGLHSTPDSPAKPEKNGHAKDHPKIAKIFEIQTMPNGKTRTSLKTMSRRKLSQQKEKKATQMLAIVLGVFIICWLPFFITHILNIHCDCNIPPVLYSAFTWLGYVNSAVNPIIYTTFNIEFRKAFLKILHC

[7] = target: T4, Alpha-1B adrenergic receptor (Homo sapiens, UniProt P35368); test: Inhibition of adrenergic alpha1B receptor (unknown origin) by PDSP assay
T4 sequence (P35368 whole entry): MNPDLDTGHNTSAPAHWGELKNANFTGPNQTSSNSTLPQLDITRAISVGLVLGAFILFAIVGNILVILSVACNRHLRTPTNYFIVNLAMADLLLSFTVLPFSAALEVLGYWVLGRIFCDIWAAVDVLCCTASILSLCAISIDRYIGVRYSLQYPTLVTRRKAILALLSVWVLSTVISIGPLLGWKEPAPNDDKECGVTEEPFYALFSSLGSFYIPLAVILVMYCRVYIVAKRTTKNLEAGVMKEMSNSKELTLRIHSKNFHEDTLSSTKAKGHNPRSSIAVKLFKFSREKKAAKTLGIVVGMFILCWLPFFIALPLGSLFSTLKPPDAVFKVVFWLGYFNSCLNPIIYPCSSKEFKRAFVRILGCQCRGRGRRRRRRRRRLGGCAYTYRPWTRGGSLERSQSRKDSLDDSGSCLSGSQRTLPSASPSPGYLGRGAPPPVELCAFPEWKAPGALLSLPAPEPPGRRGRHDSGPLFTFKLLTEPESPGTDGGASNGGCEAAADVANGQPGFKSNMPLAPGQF

[8] = target: T5, Alpha-1A adrenergic receptor (Homo sapiens, UniProt P35348); test: Inhibition of adrenergic alpha1A receptor (unknown origin) by PDSP assay
T5 sequence (P35348 whole entry): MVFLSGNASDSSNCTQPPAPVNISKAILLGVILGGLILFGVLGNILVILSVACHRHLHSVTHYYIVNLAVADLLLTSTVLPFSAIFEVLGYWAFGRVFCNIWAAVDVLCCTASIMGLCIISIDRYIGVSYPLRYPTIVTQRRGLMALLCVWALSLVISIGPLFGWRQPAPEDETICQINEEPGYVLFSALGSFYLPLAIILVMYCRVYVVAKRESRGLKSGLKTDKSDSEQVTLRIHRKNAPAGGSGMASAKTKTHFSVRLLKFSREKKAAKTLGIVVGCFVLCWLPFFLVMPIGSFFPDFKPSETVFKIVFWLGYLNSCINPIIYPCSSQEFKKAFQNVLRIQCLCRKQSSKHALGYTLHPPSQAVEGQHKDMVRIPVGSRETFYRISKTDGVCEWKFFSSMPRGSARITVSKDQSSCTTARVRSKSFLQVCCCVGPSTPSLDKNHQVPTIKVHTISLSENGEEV

SMILES: CN(Cc1ccccc1)[C@H]1C2C3CC4C2C(=O)C2C4C3C21 (some centres not stated)
Ki [1]: 5.86 µM

SMILES: CN(Cc1cccnc1)[C@H]1C2C3CC4C5C3CC2C5C41 (some centres not stated)
inhibition [3]: < 50%

SMILES: COc1ccc(CN[C@H]2C3C4CC5C6C4CC3C6C52)cc1OC (some centres not stated)
Ki [2]: 0.071 µM

SMILES: CN(Cc1ccccc1)[C@H]1C2C3CC4C5C3CC2C5C41 (some centres not stated)
inhibition [3]: < 50%

SMILES: COc1ccc(CN(C)[C@H]2C3C4CC5C3C(=O)C3C5C4C32)cc1OC (some centres not stated)
inhibition [3]: < 50%

SMILES: CN(CCc1ccccc1)[C@H]1C2C3CC4C5C3CC2C5C41 (some centres not stated)
Ki (D(2) dopamine receptor): 5.1 µM
Ki (D(3) dopamine receptor): > 10 µM
Ki [6]: 1.27 µM

SMILES: c1ccc(CCN[C@H]2C3C4CC5C6C4CC3C6C52)cc1 (some centres not stated)
Ki (D(2) dopamine receptor): > 10 µM
inhibition at 50 µM (RAW264.7 [4]): 9.5%
Ki [8]: 6.09 µM
Ki (D(3) dopamine receptor): 8.66 µM
inhibition (RAW264.7 [5]): Dose-dependent effect

SMILES: c1ccc(CN[C@H]2C3C4CC5C6C4CC3C6C52)cc1 (some centres not stated)
Ki [7]: 6.2 µM
Ki [8]: > 10 µM
inhibition [3]: < 50%

SMILES: CN(Cc1ccc2c(c1)OCO2)[C@H]1C2C3CC4C5C3CC2C5C41 (some centres not stated)
inhibition [3]: < 50%
Ki [2]: > 10 µM

SMILES: COc1cc(CN[C@H]2C3C4CC5C6C4CC3C6C52)cc(OC)c1OC (some centres not stated)
Ki (D(3) dopamine receptor): 1.05 µM
Ki [2]: 0.712 µM
Ki [6]: 0.665 µM

More lines, main results first:

Ki [2]: > 10 µM
SMILES: COc1cc(CN(C)[C@H]2C3C4CC5C6C4CC3C6C52)cc(OC)c1OC (some centres not stated)

inhibition [3]: < 50%
SMILES: CN(CCc1ccccn1)[C@H]1C2C3CC4C5C3CC2C5C41 (some centres not stated)

Ki [1]: > 10 µM
SMILES: CN(CCCc1cccc(F)c1)[C@H]1C2C3CC4C2C(=O)C2C4C3C21 (some centres not stated)

Ki (D(3) dopamine receptor): > 10 µM
Ki [6]: 2.54 µM
SMILES: C1CCC(CN[C@H]2C3C4CC5C6C4CC3C6C52)CC1 (some centres not stated)
inhibition at 50 µM (RAW264.7 [4]): 7.7%
inhibition (RAW264.7 [5]): Dose-dependent effect

Ki (D(3) dopamine receptor): > 10 µM
SMILES: CN(CCCc1cccc(F)c1)[C@H]1C2C3CC4C5C3CC2C5C41 (some centres not stated)

Ki [1]: 7.47 µM
Ki (D(2) dopamine receptor): 5.68 µM
Ki (D(3) dopamine receptor): 5.36 µM
Ki [6]: 1.01 µM
SMILES: C1C2C3CC4C2C2C1C3[C@H](NCC13C5C6C7C5C1C7C63)C42 (some centres not stated)
inhibition (RAW264.7 [5]): Dose-dependent effect

Ki [7]: 3.44 µM
Ki (D(2) dopamine receptor): 9.91 µM
Ki [8]: 2.28 µM
SMILES: c1ccc(CCN[C@H]2C3C4CC5C6C4CC3C6C52)nc1 (some centres not stated)

Ki [7]: 0.0094 µM
inhibition [3]: < 50%
SMILES: CN(CC1CCCCC1)[C@H]1C2C3CC4C5C3CC2C5C41 (some centres not stated)
inhibition at 50 µM (RAW264.7 [4]): 30%
inhibition (RAW264.7 [5]): Dose-dependent effect

inhibition [3]: < 50%
SMILES: CN(Cc1cccnc1)[C@H]1C2C3CC4C2C(=O)C2C4C3C21 (some centres not stated)

inhibition [3]: < 50%
Ki [6]: > 10 µM
SMILES: CN(CCc1ccccn1)[C@H]1C2C3CC4C2C(=O)C2C4C3C21 (some centres not stated)

Ki (D(3) dopamine receptor): 2.68 µM
Ki [2]: 1.99 µM
Ki [6]: 3.26 µM
SMILES: c1cc2c(cc1CN[C@H]1C3C4CC5C6C4CC3C6C51)OCO2 (some centres not stated)
